Test results from PubChem BioAssay (NCI).
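Five compound concentrations were applied to cells in 96-well plates for 48 hours; endpoints were derived by simple linear interpolation of the resulting dose-response curve. At the GI50, growth is halved. TGI denotes the concentration required for complete inhibition of growth.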

Legend:
Assay in all cases: inhibition of tumour cell growth, NCI panel, 48 h
MDA-N = tested on: MDA-N
NCI-H23 lung = tested on: NCI-H23 lung
NCI-H522 lung = tested on: NCI-H522 lung
OVCAR-5 ovarian = tested on: OVCAR-5 ovarian
PC-3 prostate = tested on: PC-3 prostate
SF-295 CNS = tested on: SF-295 CNS
SK-MEL-2 melanoma = tested on: SK-MEL-2 melanoma
SNB-19 CNS = tested on: SNB-19 CNS
UACC-257 melanoma = tested on: UACC-257 melanoma
UO-31 renal = tested on: UO-31 renal

| SMILES | TGI (MDA-N) | GI50 (NCI-H23 lung) | TGI (NCI-H23 lung) | TGI (NCI-H522 lung) | GI50 (OVCAR-5 ovarian) | TGI (OVCAR-5 ovarian) | GI50 (PC-3 prostate) | TGI (PC-3 prostate) | TGI (SF-295 CNS) | TGI (SK-MEL-2 melanoma) | TGI (SNB-19 CNS) | TGI (UACC-257 melanoma) | GI50 (UO-31 renal) | TGI (UO-31 renal) |
| --- | --- | --- | --- | --- | --- | --- | --- | --- | --- | --- | --- | --- | --- | --- |
| Nc1nc(N)c2nc(CNc3ccc(C(=O)NC(CCNC(=O)c4ccccc4C(=O)O)C(=O)O)cc3)cnc2n1 (centres undefined) | > 100 µM | 0.0324 µM | > 100 µM | > 100 µM | 0.0863 µM | > 100 µM | 0.00666 µM | > 100 µM | > 100 µM | > 100 µM | > 100 µM | > 100 µM | 0.04 µM | > 100 µM |
| COc1c(C)c(C/C=C(\C)CCCCO)c(OC)c2ccccc12 | > 100 µM | – | 94.2 µM | 42.3 µM | – | > 100 µM | – | > 100 µM | > 100 µM | > 100 µM | > 100 µM | > 100 µM | – | > 100 µM |
| COC(=O)C1Cc2c([nH]c3ccccc23)-c2[nH]c3ccccc3c2CC(NC(C)=O)C(=O)N2CCCC2C(=O)N1 (centres undefined) | > 100 µM | – | > 100 µM | > 100 µM | – | > 100 µM | – | > 100 µM | > 100 µM | > 100 µM | > 100 µM | > 100 µM | – | > 100 µM |
| CCN(CCN(CC)C(=O)NC)C(=O)NC | > 100 µM | – | > 100 µM | > 100 µM | – | > 100 µM | – | > 100 µM | > 100 µM | > 100 µM | > 100 µM | > 100 µM | – | > 100 µM |
| CCOC(=O)C(NC(=O)c1ccccc1)(Nc1ccc(S(=O)(=O)Nc2ccc(OC)nn2)cc1)C(F)(F)F (centres undefined) | > 100 µM | – | > 100 µM | > 100 µM | – | > 100 µM | – | > 100 µM | > 100 µM | > 100 µM | > 100 µM | > 100 µM | – | > 100 µM |
| CCOC(=O)CCC(C(=O)OCC)n1nnc2ccc(Nc3c(C)[n+]([O-])c4cc(F)c(OCC)cc4[n+]3[O-])cc21 (centres undefined) | > 100 µM | – | > 100 µM | > 100 µM | – | > 100 µM | – | > 100 µM | > 100 µM | > 100 µM | > 100 µM | 42 µM | – | > 100 µM |
| N#CC(C#N)C1CN2CCC1CC2 (centres undefined) | > 100 µM | – | > 100 µM | > 100 µM | – | > 100 µM | – | > 100 µM | > 100 µM | > 100 µM | > 100 µM | > 100 µM | – | > 100 µM |
| CN(C)CCCN=c1c2ccccc2n(C)c2[nH]c(=O)n(C)c(=O)c12 | 16.2 µM | – | 21.7 µM | 9.34 µM | – | 43.7 µM | – | 22.4 µM | 32.5 µM | 9.96 µM | > 64.4 µM | 13.8 µM | – | 27.2 µM |
| O=C1c2ccccc2C(=O)c2c(NCC3CO3)cccc21 (centres undefined) | 23.7 µM | – | > 40.4 µM | > 100 µM | – | > 100 µM | – | > 57 µM | > 100 µM | 32 µM | > 100 µM | > 100 µM | – | 22.5 µM |
| COC(=O)C1=C(C)NC2=C(C(=O)c3ccccc32)C1c1cn[nH]c1-c1ccccc1 (centres undefined) | > 100 µM | – | > 100 µM | > 100 µM | – | > 100 µM | – | > 100 µM | > 100 µM | > 100 µM | > 100 µM | > 100 µM | – | > 100 µM |
| CCc1n[nH]c(=O)n1N=C(c1ccccc1)c1ccccc1 | > 100 µM | – | > 100 µM | > 100 µM | – | > 100 µM | – | > 100 µM | > 100 µM | > 100 µM | > 100 µM | > 100 µM | – | > 100 µM |
| O=C1C(=O)N(C23CC4CC(CC(C4)C2)C3)C(=S)N1c1ccccc1 | > 100 µM | – | > 100 µM | > 100 µM | – | > 100 µM | – | > 100 µM | > 100 µM | > 100 µM | > 100 µM | > 100 µM | – | > 100 µM |
| C=CC(=C)CCC(Br)C(C)(C)Cl (centres undefined) | > 100 µM | – | > 100 µM | 54.2 µM | – | > 100 µM | – | > 100 µM | > 100 µM | > 100 µM | > 100 µM | > 100 µM | – | > 100 µM |
